# Assays:
# [1] = tested on: ACTH independent hyperplasia cultures; experiment: Cortisol production in primary ACTH independent hyperplasia cultures; assay type: cell-based, human; conditions: ACTH independent hyperplasia no. 1, basal condition, 3 days
# Method: (§1) To obtain primary cultures, adrenal specimens (adrenocortical adenomas, adrenal hyperplasias and adrenocortical carcinomas) were collected after adrenalectomy at the department of Surgery, Erasmus University Medical Center, Rotterdam, the Netherlands, between April 2016 and May 2018. The study was conducted under guidelines that have been approved by the Medical Ethics Committee of the Erasmus Medical Center and informed consent was obtained from all patients. Immediately after surgery, specimens were minced into small pieces of 2-3 mm^3, washed in culture medium and centrifuged for 5 minutes at 600 g. The tissue was stored overnight in culture medium at 4° C., where after the tissue was centrifuged again and the supernatant was removed. Fragments were dissociated using 10-25 ml collagenase type 1 (2 mg/ml: Sigma-Aldrich), followed by incubation at 37° C. for up to two hours. Ficoll (GE healthcare) density gradient separation was used once or twice as required in order to separate contaminating red blood cells from the tumor cells. Cell viability and cell amount were counted by trypan blue exclusion. Dissociated cells were plated at a density of 10^5 cells per well. […]
# Cortisol concentrations were measured in the supernatant using a chemiluminescence immunoassay system (Immulite 2000XPi; Siemens DPC Inc., Los Angeles, Calif., USA). In addition, we carried out multi-steroid analysis by liquid chromatography/mass spectrometry (LC/MS-MS) to accurately quantify androstenedione, corticosterone, cortisol, 11-deoxycortisol, DHEA, DHEAS, progesterone, 17-hydroxyprogesterone, and testosterone. […] Steroids were quantified with respect to a calibration series, with internal standards. Steroids were quantified on a Xevo TQS LC-MS/MS (Waters Chromatography).
# Statistical analysis was performed using Graphpad Prism 6.0 (Graphpad Software, San Diego, CA). […] Effects of both compounds on the steroid profile were measured as absolute change compared to control and compared using the Student's t-test. […]
# HAC15 cells = experiment: Steroid profile by LC/MS-MS in HAC15 cells; assay type: cell-based, Human; conditions: 0.5 μM
# Method: Human adrenocortical carcinoma HAC15 and mouse corticotroph AtT20 cells were used, purchased as a kind gift by Dr. W. Rainey, and obtained from Dr. J. Tooze (European Organization for Molecular Biology), respectively. Both cell lines were cultured in 75 cm^2 flasks at 37° C. in a humidified incubator (Greiner Bio-One, Alphen a/d Rijn, the Netherlands) at 5% CO2. Dulbecco's Modified Eagle Medium F12 containing 5% fetal calf serum was used for HAC15, whereas AtT20 cells were cultured in Dulbecco's minimal essential medium (DMEM) supplemented with 10% fetal calf serum. Both mediums were supplemented with L-glutamine (2 mmol/L) and penicillin (10^5 U/L). Short tandem repeat (str) profiling using a Powerplex Kit (Promega, Leiden, the Netherlands) of HAC15 and AtT20 gave results consistent with the ATCC database, confirming the identity of both cell lines. Medium and supplements were obtained from Invitrogen, Breda, the Netherlands. Once a week, cells were harvested with trypsin (0.05%)-EDTA (0.53 mM) and resuspended in culture medium. Levoketoconazole (COR-003) and racemic ketoconazole (both from Cortendo AB) were dissolved in absolute ethanol (EtOH), according to manufacturer's instructions, and stored at −20° C. at a stock concentration of […]. At the start of each experiment, both drugs were freshly prepared and diluted in EtOH in the correct concentrations. Synacten (synthetic ACTH, Novartis Pharma A.G.) stock concentration was stored at 4° C. and dissolved in culture medium at the day of use. The final concentrations of ACTH were chosen based on a dose-response curve in HAC15 cells and previously reported studies in the literature. For HAC15, 200,000 and 100,000 cells were plated in 0.5 ml medium in 24 well plates for experiments of 1 and 3 days, respectively. For AtT20, cell amounts were 100,000 and 30,000. One day after seeding the HAC15 cells, the medium was refreshed and cells were treated 1 or 3 days in quadruplicate with levoketoconazole or racemic ketoconazole (0.05-5 μM), with or without 10 nM ACTH. To study effects of both compounds on pituitary AtT20 cells, concentrations of 0.1 to 10 μM of both drugs were used. Controls were vehicle treated. […] Media were collected after 1 or 3 days of incubation and stored at −20° C. until analysis. All cell culture experiments were carried out at least twice.
# Cortisol concentrations were measured in the supernatant using a chemiluminescence immunoassay system (Immulite 2000XPi; Siemens DPC Inc., Los Angeles, Calif., USA). In addition, we carried out multi-steroid analysis by liquid chromatography/mass spectrometry (LC/MS-MS) to accurately quantify androstenedione, corticosterone, cortisol, 11-deoxycortisol, DHEA, DHEAS, progesterone, 17-hydroxyprogesterone, and testosterone. Concentrations that were tested on the LC/MS-MS were closest to 50% inhibition or maximal inhibition of cortisol as determined by the immunoassay. Steroids were quantified with respect to a calibration series, with internal standards. Steroids were quantified on a Xevo TQS LC-MS/MS (Waters Chromatography).
# Statistical analysis was performed using Graphpad Prism 6.0 (Graphpad Software, San Diego, CA). Non-linear regression curve fitting program was used to calculate the half maximal inhibitory concentrations (IC50) on cortisol production. Effects of both compounds on the steroid profile were measured as absolute change compared to control and compared using the Student's t-test. When assessing differences between effects of both compounds, the percentage change was evaluated and compared in order to correct for differences in the vehicle treated control cells. Values of P<0.05 were considered statistically significant and data are presented as mean SEM.
# [2] = tested on: primary human corticotroph pituitary adenoma cultures; experiment: Cell amount in primary corticotroph pituitary adenoma cultures; assay type: cell-based; conditions: corticotroph pituitary adenoma primary culture no. 2, 1 μM, 7 days
# Method: as §1
# As a measure of cell number, DNA concentrations were determined using the bisbenzimide fluorescent dye (Hoechst 33258, Sigma Aldrich), as previously described.
# [3] = HAC15, ACTH, 3 days, listed as LK
compound,measurement,setting,value
"CC(=O)N1CCN(c2ccc(OC[C@@H]3CO[C@@](Cn4ccnc4)(c4ccc(Cl)cc4Cl)O3)cc2)CC1 (relative stereo) [levoketoconazole, 2S,4R cis-1-acetyl-4-[4-[[2-(2,4-dichlorophenyl)-2-(1H-imidazol-1-ylmethyl)-1,3-dioxolan-4-yl]methoxyl]phenyl]piperazine]",IC50 inhibition of cortisol production,[1],Ambiguous
same,total sum of decrease of steroids,"HAC15 cells; HAC15, ACTH","−2,811 nmol/L"
same,11-DOC absolute change vs ACTH stimulation with vehicle,"HAC15 cells; HAC15, ACTH, 3 days",-1524 nmol/L
same,11-DOC percentage change vs ACTH stimulation with vehicle,"HAC15 cells; HAC15, ACTH, 3 days",−47%
same,17-OHP absolute change vs ACTH stimulation with vehicle,"HAC15 cells; HAC15, ACTH, 3 days",-24.73 nmol/L
same,17-OHP percentage change vs ACTH stimulation with vehicle,"HAC15 cells; HAC15, ACTH, 3 days",(−47%)
same,Androstenedione absolute change vs ACTH stimulation with vehicle,"HAC15 cells; HAC15, ACTH, 3 days",-943.7 nmol/L
same,Androstenedione percentage change vs ACTH stimulation with vehicle,"HAC15 cells; HAC15, ACTH, 3 days",(−52%)
same,Corticosterone absolute change vs ACTH stimulation with vehicle,"HAC15 cells; HAC15, ACTH, 3 days",-1.063 nmol/L
same,Corticosterone percentage change vs ACTH stimulation with vehicle,"HAC15 cells; HAC15, ACTH, 3 days",(−36%)
same,Cortisol absolute change vs ACTH stimulation with vehicle,"HAC15 cells; HAC15, ACTH, 3 days",-13.81 nmol/L
same,Cortisol percentage change vs ACTH stimulation with vehicle,"HAC15 cells; HAC15, ACTH, 3 days",−31%
same,DHEA absolute change vs ACTH stimulation with vehicle,"HAC15 cells; HAC15, ACTH, 3 days",-13.81 nmol/L
same,DHEA percentage change vs ACTH stimulation with vehicle,"HAC15 cells; HAC15, ACTH, 3 days",(−31%)
same,DHEAS absolute change vs ACTH stimulation with vehicle,"HAC15 cells; HAC15, ACTH, 3 days",-250.1 nmol/L
same,DHEAS percentage change vs ACTH stimulation with vehicle,"HAC15 cells; HAC15, ACTH, 3 days",(−43%)
same,Prog absolute change vs ACTH stimulation with vehicle,"HAC15 cells; HAC15, ACTH, 3 days",-2.163 nmol/L
same,Prog percentage change vs ACTH stimulation with vehicle,"HAC15 cells; HAC15, ACTH, 3 days",(−64%)
same,Testosterone absolute change vs ACTH stimulation with vehicle,"HAC15 cells; HAC15, ACTH, 3 days",-30.52 nmol/L
same,Testosterone percentage change vs ACTH stimulation with vehicle,"HAC15 cells; HAC15, ACTH, 3 days",(−71%)
same,11-DOC absolute change vs ACTH stimulation with vehicle,HAC15 cells; [3],-1524 nmol/L
same,11-DOC percentage change vs ACTH stimulation with vehicle,HAC15 cells; [3],(−47%)
same,Cortisol absolute change vs ACTH stimulation with vehicle,HAC15 cells; [3],-21.80 nmol/L
same,Cortisol percentage change vs ACTH stimulation with vehicle,HAC15 cells; [3],(−65%)
same,11-DOC absolute change vs control,"HAC15 cells; HAC15, Basal, 3 days",-1129 nmol/L
same,11-DOC percentage change vs control,"HAC15 cells; HAC15, Basal, 3 days",(−48%)
same,17-OHP absolute change vs control,"HAC15 cells; HAC15, Basal, 3 days",-26.89 nmol/L
same,17-OHP percentage change vs control,"HAC15 cells; HAC15, Basal, 3 days",(−57%)
same,Androstenedione absolute change vs control,"HAC15 cells; HAC15, Basal, 3 days",-1105 nmol/L
same,Androstenedione percentage change vs control,"HAC15 cells; HAC15, Basal, 3 days",(−56%)
same,Corticosterone absolute change vs control,"HAC15 cells; HAC15, Basal, 3 days",-0.2938 nmol/L
same,Corticosterone percentage change vs control,"HAC15 cells; HAC15, Basal, 3 days",(−39%)
same,Cortisol absolute change vs control,"HAC15 cells; HAC15, Basal, 3 days",-16.36 nmol/L
same,Cortisol percentage change vs control,"HAC15 cells; HAC15, Basal, 3 days",(−69%)
same,DHEA absolute change vs control,"HAC15 cells; HAC15, Basal, 3 days",-31.04 nmol/L
same,DHEA percentage change vs control,"HAC15 cells; HAC15, Basal, 3 days",(−44%)
same,DHEAS absolute change vs control,"HAC15 cells; HAC15, Basal, 3 days",-658.6 nmol/L
same,DHEAS percentage change vs control,"HAC15 cells; HAC15, Basal, 3 days",(−56%)
same,Prog absolute change vs control,"HAC15 cells; HAC15, Basal, 3 days",-0.9125 nmol/L
same,Prog percentage change vs control,"HAC15 cells; HAC15, Basal, 3 days",(−55%)
same,Testosterone absolute change vs control,"HAC15 cells; HAC15, Basal, 3 days",-39.19 nmol/L
same,Testosterone percentage change vs control,"HAC15 cells; HAC15, Basal, 3 days",(−64%)
same,total sum of decrease of steroids,"HAC15 cells; HAC15, basal","−3,007 nmol/L"
same,effect on cell number,[2],significantly inhibited cell number
